System: abdominal aorta ring specimen
Assay: Evaluation of blood vessel relaxing function (phenylephrine-contracted abdominal aorta ring)
Conditions: relaxation of rat abdominal aorta contracted with 1 μmol/L phenylephrine; without vs with 10 μmol/L ODQ
Protocol: The representative compounds of the present invention were evaluated by blood vessel relaxing function according to the following Test Example. In the assay, bleeding from the upper part of a heart of a rat (male, SD) was performed under anesthesia with pentobarbital (30 mg/kg) and then abdominal aorta was extracted. The connecting tissue adhered around blood vessel was removed from the abdominal aorta in an ice-cooled Krebs-Henseleit solution (KH solution) (118 mmol/L sodium chloride, 4.7 mmol/L potassium chloride, 1.2 mmol/L magnesium sulfate, 1.2 mmol/L potassium dihydrogen phosphate, 25 mmol/L sodium hydrogen carbonate, 2.5 mmol/L calcium chloride, and 10 mmol/L glucose, pH 7.4). After that, a ring specimen with length of 2 mm was prepared and fixed in 5 mL organ bath filled with a KH solution. The KH solution was kept at 37° C. and aerated with a mixture gas of 95% O2 and 5% CO2. The specimen was stabilized for 1 hour with static tension of 1 g. The KH solution was exchanged twice during that time. The tension on the specimen was recorded on a multi-channel recorder via pickup and amplifier. After the stabilization of the specimen, contraction was caused by using 1 μmol/L phenylephrine (Phe), and cumulative administration of each compound (0.001, 0.01, 0.03, 0.1, 0.3, 1, 3, 10, 30, 100, 1000, 10000 nmol/L) was performed. For the evaluation of a case in which 1H-1,2,4-oxadiazole-(4,3a)-quinoxalin-1-one (ODQ) is contained, 10 μmol/L ODQ was added 10 minutes before the Phe addition, and the same evaluation as above was performed.
EC50 value was calculated using four-parameter logistics model using Assay Explorer (Accelrys). The test compound solution was dissolved in DMSO such that the concentration of each test compound is 1000 times the final concentration.

EC50 Ratio (ODQ−/ODQ+) | SMILES
12.4 | O=C(O)CCCCN(CCc1ccccc1OCc1ccc(CCc2ccccc2)cc1)Cc1ccc(C(=O)O)cc1 [Cinaciguat, reference compound]
9.0 | O=C(O)CCCCN(CCc1ccccc1OCc1ccc(SCc2ccccc2)cc1)C1CCCc2cc(C(=O)O)ccc21 (stereo not drawn) [Example 15, 5-{N-[2-[2-(4-Benzylsulfanylbenzyloxyl)phenyl]ethyl]-N-(4-carboxybutyl)amino}-5,6,7,8-tetrahydronaphthalene-2-carboxylic acid]
5.0 | O=C(O)CCCCN(CCc1ccccc1OCc1cccc2c1CCCC2)C1CCCc2cc(C(=O)O)ccc21 (stereo not drawn) [Example 29, 5-{N-(4-Carboxybutyl)-N-[2-[2-(5,6,7,8-tetrahydronaphthalene-1-ylmethoxy)phenyl]ethyl]amino}-5,6,7,8-tetrahydronaphthalene-2-carboxylic acid]

From patent US9290440B2, “Bicyclic compound” (TOA EIYO LTD., priority 2012, dated 2016)
